Measured values taken from the NIST ThermoML archive (doi:10.1016/j.tca.2006.05.010).

Columns and labels:
[1] = 101.33 kPa, Liquid, Vibrating tube method
[2] = molar heat capacity at constant pressure; conditions: 101.33 kPa, Liquid, Small sample (50 mg) DSC
[3] = refractive index (Na D-line) (dimensionless); conditions: 101.33 kPa, Liquid, Standard Abbe refractometry
[4] = molar heat capacity at constant pressure; xn = mol fraction of the nth substance listed; conditions: 308.15 K, 101 kPa, Liquid, Small sample (50 mg) DSC
[5] = excess molar enthalpy (molar enthalpy of mixing); xn = mol fraction of the nth substance listed; conditions: 308.15 K, 101 kPa, Liquid, Flow calorimetry

CCOCCOCC [1,2-diethoxyethane]
Conditions | mass density, [1] [kg/m3] | molar heat capacity at constant pressure, [2] [J/K/mol] | refractive index, [3]
288.15 K | – | 254.5 | –
293.15 K | – | 255.3 | –
298.15 K | 835.11 | 257.5 | 1.3897
303.15 K | – | 257.9 | –
308.15 K | 826.026 | 258.7 | 1.3853
313.15 K | – | 259.5 | –
318.15 K | – | 261.2 | –
323.15 K | – | 262.9 | –

CCOCCOCC [1,2-diethoxyethane] + C[S+](C)[O-]
Conditions | excess molar enthalpy [kJ/mol] | molar heat capacity at constant pressure [J/K/mol]
[4], x2 = 0.0627 | – | 252.8
[4], x2 = 0.1317 | – | 246
[4], x2 = 0.1895 | – | 240.7
[4], x2 = 0.35 | – | 225
[4], x2 = 0.4563 | – | 214.4
[4], x2 = 0.5642 | – | 203.2
[4], x2 = 0.635 | – | 195.8
[4], x2 = 0.6718 | – | 191.9
[4], x2 = 0.7514 | – | 183.1
[4], x2 = 0.8274 | – | 174.7
[4], x2 = 0.8881 | – | 167.7
[4], x2 = 0.941 | – | 161.6
[5], x2 = 0.0765 | 0.342 | –
[5], x2 = 0.1421 | 0.532 | –
[5], x2 = 0.199 | 0.648 | –
[5], x2 = 0.2488 | 0.72 | –
[5], x2 = 0.332 | 0.803 | –
[5], x2 = 0.3986 | 0.843 | –
[5], x2 = 0.4985 | 0.893 | –
[5], x2 = 0.5698 | 0.883 | –
[5], x2 = 0.6653 | 0.835 | –
[5], x2 = 0.7489 | 0.726 | –
[5], x2 = 0.799 | 0.638 | –
[5], x2 = 0.8564 | 0.502 | –
[5], x2 = 0.8883 | 0.397 | –
[5], x2 = 0.9227 | 0.293 | –
[5], x2 = 0.9408 | 0.245 | –
[5], x2 = 0.9598 | 0.16 | –
[5], x2 = 0.9795 | 0.083 | –

COCCOC [1,2-dimethoxyethane]
Conditions | mass density, [1] [kg/m3] | molar heat capacity at constant pressure, [2] [J/K/mol] | refractive index, [3]
288.15 K | – | 188.7 | –
293.15 K | – | 189 | –
298.15 K | 861.9 | 191 | 1.3781
303.15 K | – | 192.2 | –
308.15 K | 851.28 | 193.4 | 1.3726
313.15 K | – | 194.5 | –
318.15 K | – | 195.8 | –
323.15 K | – | 196.9 | –

COCCOC [1,2-dimethoxyethane] + C[S+](C)[O-]
Conditions | excess molar enthalpy [kJ/mol] | molar heat capacity at constant pressure [J/K/mol]
[4], x2 = 0.1017 | – | 188.6
[4], x2 = 0.1471 | – | 186.5
[4], x2 = 0.2718 | – | 180.8
[4], x2 = 0.3811 | – | 175.8
[4], x2 = 0.4923 | – | 170.8
[4], x2 = 0.5507 | – | 168.3
[4], x2 = 0.5831 | – | 166.9
[4], x2 = 0.677 | – | 163.1
[4], x2 = 0.7788 | – | 159.4
[4], x2 = 0.8414 | – | 157.6
[4], x2 = 0.9315 | – | 155.5
[4], x2 = 0.9626 | – | 155
[5], x2 = 0.0577 | 0.077 | –
[5], x2 = 0.1092 | 0.142 | –
[5], x2 = 0.1553 | 0.193 | –
[5], x2 = 0.1969 | 0.231 | –
[5], x2 = 0.2689 | 0.285 | –
[5], x2 = 0.329 | 0.326 | –
[5], x2 = 0.4238 | 0.361 | –
[5], x2 = 0.495 | 0.366 | –
[5], x2 = 0.5953 | 0.364 | –
[5], x2 = 0.6882 | 0.338 | –
[5], x2 = 0.7463 | 0.316 | –
[5], x2 = 0.8153 | 0.265 | –
[5], x2 = 0.8547 | 0.23 | –
[5], x2 = 0.8982 | 0.182 | –
[5], x2 = 0.9217 | 0.142 | –
[5], x2 = 0.9464 | 0.105 | –
[5], x2 = 0.9725 | 0.057 | –

C1COCO1 [1,3-dioxolane]
Conditions | mass density [kg/m3] | molar heat capacity at constant pressure [J/K/mol] | refractive index
[1], 298.15 K | 1058.79 | – | –
[1], 308.15 K | 1046.4 | – | –
[2], 288.15 K | – | 118.8 | –
[2], 293.15 K | – | 120.3 | –
[2], 298.15 K | – | 121.7 | –
[2], 303.15 K | – | 123.3 | –
[2], 308.15 K | – | 124.4 | –
[2], 313.15 K | – | 125.3 | –
[2], 318.15 K | – | 126.8 | –
[2], 323.15 K | – | 128.1 | –
[2], 328.15 K | – | 129.5 | –
[3], 298.15 K | – | – | 1.3983
[3], 308.15 K | – | – | 1.3934

C1COCO1 [1,3-dioxolane] + C[S+](C)[O-]
Conditions | excess molar enthalpy [kJ/mol] | molar heat capacity at constant pressure [J/K/mol]
[4], x2 = 0.0532 | – | 125.2
[4], x2 = 0.1036 | – | 126.2
[4], x2 = 0.1897 | – | 128.2
[4], x2 = 0.3044 | – | 131.3
[4], x2 = 0.3922 | – | 133.9
[4], x2 = 0.5058 | – | 137.3
[4], x2 = 0.5455 | – | 138.5
[4], x2 = 0.5936 | – | 139.9
[4], x2 = 0.7053 | – | 143.4
[4], x2 = 0.781 | – | 145.9
[4], x2 = 0.9015 | – | 150.3
[4], x2 = 0.9431 | – | 152
[5], x2 = 0.0394 | 0.061 | –
[5], x2 = 0.0757 | 0.107 | –
[5], x2 = 0.1095 | 0.14 | –
[5], x2 = 0.1408 | 0.171 | –
[5], x2 = 0.1974 | 0.2 | –
[5], x2 = 0.2469 | 0.226 | –
[5], x2 = 0.3297 | 0.25 | –
[5], x2 = 0.3959 | 0.263 | –
[5], x2 = 0.4959 | 0.271 | –
[5], x2 = 0.5961 | 0.264 | –
[5], x2 = 0.663 | 0.255 | –
[5], x2 = 0.7469 | 0.235 | –
[5], x2 = 0.7973 | 0.217 | –
[5], x2 = 0.8551 | 0.179 | –
[5], x2 = 0.8872 | 0.148 | –
[5], x2 = 0.9219 | 0.112 | –
[5], x2 = 0.9594 | 0.065 | –

C1COCCO1 [1,4-dioxane]
Conditions | mass density [kg/m3] | molar heat capacity at constant pressure [J/K/mol] | refractive index
[1], 298.15 K | 1027.96 | – | –
[1], 308.15 K | 1016.99 | – | –
[2], 288.15 K | – | 146.7 | –
[2], 293.15 K | – | 150 | –
[2], 298.15 K | – | 151 | –
[2], 303.15 K | – | 152.1 | –
[2], 308.15 K | – | 153.7 | –
[2], 313.15 K | – | 155.3 | –
[2], 318.15 K | – | 156.5 | –
[2], 323.15 K | – | 158.4 | –
[2], 328.15 K | – | 160.2 | –
[2], 333.15 K | – | 160.4 | –
[3], 298.15 K | – | – | 1.4202
[3], 308.15 K | – | – | 1.4154
